How the values were obtained:
Assay type in all cases: cell-based
E. coli DH5α = experiment: Antibacterial activity: MIC and growth curve against E. coli DH5α in 96-well plate; conditions: minimal inhibitory concentration against E. coli DH5α; 96-well plate, 5×10^5 CFU/mL, 37° C., judged after 8 h
Procedure, shortened: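 Log-phase DH5α (OD600 about 0.5, 37° C, 185 rpm in LB) was pelleted, resuspended in fresh LB and seeded at 5×10^5 CFU/mL with recombinant protein at 50, 25 and 12.5 μg/mL (two-fold series), in triplicate. Plates were shaken at 175 rpm, 37° C, and OD600 was read every 30 min. MIC was the lowest concentration with no growth.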

Proteus vulgaris = experiment: MIC against Gram-negative bacteria: Proteus vulgaris; conditions: for MIC (μg/mL) P. vulgaris / MIC against P. vulgaris: Proteus vulgaris, 96-well plate, 5×10^5 CFU/mL, 37° C., 10 h
Procedure, shortened: (§1)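 First, colonies from LB agar were grown in LB at 37° C, 185 rpm, to McFarland turbidity 0.5, then centrifuged and resuspended in fresh LB. Next, wells received 5×10^5 CFU/mL bacteria plus two-fold serially diluted EGF domain protein (triplicate). Finally, plates were shaken at 37° C and the no-growth concentration taken as MIC.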

Klebsiella pneumonia = experiment: MIC against Gram-negative bacteria: Klebsiella pneumonia; conditions: for MIC (μg/mL) K. pneumonia / MIC against K. pneumonia: Klebsiella pneumonia, 96-well plate, 5×10^5 CFU/mL, 37° C., 10 h
Procedure, shortened: as §1

Serratia marcescens = experiment: MIC against Gram-negative bacteria: Serratia marcescens; conditions: for MIC (μg/mL) S. marcescens / MIC against S. marcescens: Serratia marcescens, 96-well plate, 5×10^5 CFU/mL, 37° C., 10 h
Procedure, shortened: as §1

Aeromonas hydrophila = experiment: MIC against Gram-negative bacteria: Aeromonas hydrophila; conditions: for MIC (μg/mL) A. hydrophila / MIC against A. hydrophila: Aeromonas hydrophila, 96-well plate, 5×10^5 CFU/mL, 37° C., 10 h
Procedure, shortened: as §1

Proteus mirabilis = experiment: MIC against Gram-negative bacteria: Proteus mirabilis; conditions: for MIC (μg/mL) P. mirabilis / MIC against P. mirabilis: Proteus mirabilis, 96-well plate, 5×10^5 CFU/mL, 37° C., 10 h
Procedure, shortened: as §1

E. coli BL21 = experiment: MIC against Gram-negative bacteria: E. coli BL21; conditions: E. coli BL21; for MIC (μg/mL) E. coli BL21 / MIC against E. coli BL21: 96-well plate, 5×10^5 CFU/mL, 37° C., 10 h
Procedure, shortened: as §1

Pseudomonas aeruginosa = experiment: MIC against Gram-negative bacteria: Pseudomonas aeruginosa; conditions: for MIC (μg/mL) P. aeruginosa / MIC against P. aeruginosa: Pseudomonas aeruginosa, 96-well plate, 5×10^5 CFU/mL, 37° C., 10 h
Procedure, shortened: as §1

Enterobacter cloacae = experiment: MIC against Gram-negative bacteria: Enterobacter cloacae; conditions: for MIC (μg/mL) E. cloacae / MIC against E. cloacae: Enterobacter cloacae, 96-well plate, 5×10^5 CFU/mL, 37° C., 10 h
Procedure, shortened: as §1

Moraxella catarrhalis = experiment: MIC against Gram-negative bacteria: Moraxella catarrhalis; conditions: for MIC (μg/mL) M. catarrhalis / MIC against M. catarrhalis: Moraxella catarrhalis, 96-well plate, 5×10^5 CFU/mL, 37° C., 10 h
Procedure, shortened: as §1

Citrobacter diversus = experiment: MIC against Gram-negative bacteria: Citrobacter diversus; conditions: for MIC (μg/mL) C. diversus / MIC against C. diversus: Citrobacter diversus, 96-well plate, 5×10^5 CFU/mL, 37° C., 10 h
Procedure, shortened: as §1

PRT113 (DLDECASRSKSGEEDPQPQCQHLCHNYVGGYFCSCRPGYELQEDRHSCQ; listed as Homo sapiens)
MIC (E. coli DH5α): 12.5 µg/mL
MIC (μg/mL) P. vulgaris (Proteus vulgaris): 12.5 µg/mL
MIC (μg/mL) K. pneumonia (Klebsiella pneumonia): 12.5 µg/mL
MIC (μg/mL) S. marcescens (Serratia marcescens): 100 µg/mL
MIC (μg/mL) A. hydrophila (Aeromonas hydrophila): 50 µg/mL
MIC (μg/mL) P. mirabilis (Proteus mirabilis): 12.5 µg/mL
MIC (μg/mL) E. coli BL21 (E. coli BL21): 50 µg/mL
MIC (μg/mL) P. aeruginosa (Pseudomonas aeruginosa): 25 µg/mL
MIC (μg/mL) E. cloacae (Enterobacter cloacae): 25 µg/mL
MIC (μg/mL) M. catarrhalis (Moraxella catarrhalis): 50 µg/mL
MIC (μg/mL) C. diversus (Citrobacter diversus): 12.5 µg/mL

PRT1273 (DVDECEREDNAGCVHDCVNIPGNYRCTCYDGFHLAHDGHNCL; listed as Homo sapiens)
MIC (E. coli DH5α): 12.5 µg/mL
MIC against P. vulgaris (Proteus vulgaris): 12.5 µg/mL
MIC against K. pneumonia (Klebsiella pneumonia): 50 µg/mL
MIC against S. marcescens (Serratia marcescens): 50 µg/mL
MIC against A. hydrophila (Aeromonas hydrophila): 50 µg/mL
MIC against P. mirabilis (Proteus mirabilis): 50 µg/mL
MIC against E. coli BL21 (E. coli BL21): 50 µg/mL
MIC against P. aeruginosa (Pseudomonas aeruginosa): 12.5 µg/mL
MIC against E. cloacae (Enterobacter cloacae): 12.5 µg/mL
MIC against M. catarrhalis (Moraxella catarrhalis): 12.5 µg/mL
MIC against C. diversus (Citrobacter diversus): 25 µg/mL

PRT1218 (DINECEREECENGGSCVNVFGSFLCNCTPGYVGQYCG; listed as Homo sapiens)
MIC (E. coli DH5α): 12.5 µg/mL
MIC against P. vulgaris (Proteus vulgaris): 12.5 µg/mL
MIC against K. pneumonia (Klebsiella pneumonia): 12.5 µg/mL
MIC against S. marcescens (Serratia marcescens): 25 µg/mL
MIC against A. hydrophila (Aeromonas hydrophila): 12.5 µg/mL
MIC against P. mirabilis (Proteus mirabilis): 12.5 µg/mL
MIC against E. coli BL21 (E. coli BL21): 25 µg/mL
MIC against P. aeruginosa (Pseudomonas aeruginosa): 25 µg/mL
MIC against E. cloacae (Enterobacter cloacae): 12.5 µg/mL
MIC against M. catarrhalis (Moraxella catarrhalis): 12.5 µg/mL
MIC against C. diversus (Citrobacter diversus): 25 µg/mL

PRT79 (LPDPCDSNPCPANSYCSNDWDSYSCSCDPGYYGDNC; listed as Homo sapiens)
MIC (E. coli DH5α): 50 µg/mL
MIC (μg/mL) P. vulgaris (Proteus vulgaris): 12.5 µg/mL
MIC (μg/mL) K. pneumonia (Klebsiella pneumonia): 25 µg/mL
MIC (μg/mL) S. marcescens (Serratia marcescens): 50 µg/mL
MIC (μg/mL) A. hydrophila (Aeromonas hydrophila): 25 µg/mL
MIC (μg/mL) P. mirabilis (Proteus mirabilis): 50 µg/mL
MIC (μg/mL) E. coli BL21 (E. coli BL21): 25 µg/mL
MIC (μg/mL) P. aeruginosa (Pseudomonas aeruginosa): 12.5 µg/mL
MIC (μg/mL) E. cloacae (Enterobacter cloacae): 12.5 µg/mL
MIC (μg/mL) M. catarrhalis (Moraxella catarrhalis): 12.5 µg/mL
MIC (μg/mL) C. diversus (Citrobacter diversus): 12.5 µg/mL

PRT988 (DVDECQLQPNACHNGGTCFNTLGGHSCVCVNGWTGESCS; listed as Homo sapiens)
MIC (E. coli DH5α): 12.5 µg/mL
MIC (Proteus vulgaris; P. vulgaris, 10 h cultivation at 37° C.): 50 µg/mL
MIC (Klebsiella pneumonia; K. pneumonia, 10 h cultivation at 37° C.): 50 µg/mL
MIC (Serratia marcescens; S. marcescens, 10 h cultivation at 37° C.): 12.5 µg/mL
MIC (Aeromonas hydrophila; A. hydrophila, 10 h cultivation at 37° C.): 50 µg/mL
MIC (Proteus mirabilis; P. mirabilis, 10 h cultivation at 37° C.): 12.5 µg/mL
MIC (E. coli BL21; 10 h cultivation at 37° C.): 50 µg/mL
MIC (Pseudomonas aeruginosa; P. aeruginosa, 10 h cultivation at 37° C.): 12.5 µg/mL
MIC (Enterobacter cloacae; E. cloacae, 10 h cultivation at 37° C.): 12.5 µg/mL
MIC (Moraxella catarrhalis; M. catarrhalis, 10 h cultivation at 37° C.): 50 µg/mL
MIC (Citrobacter diversus; C. diversus, 10 h cultivation at 37° C.): 12.5 µg/mL

— patent US9833497B2, “Human originated EGF domain proteins and use of the same” (CHENGDU SOURCEBIO LIMITED-LIABILITY COMPANY, priority 2013, dated 2017)
